# Laboratory results published in US8697742B2, “BCRP/ABCG2 inhibitor” (Kabushiki Kaisha Yakult Honsha, priority 2005, dated 2014).
# Counter-ions that a name gives are not always drawn. Like-named read-outs stand apart in the source and are kept apart here.
# Key:
# [1] = tested on: A549/SN-38-4 cells; assay: Effect of overcoming SN-38 resistance of BCRP-expressing A549/SN-38-4 cells; type: cell-based, human; conditions: concentration for 50% reduction of relative SN-38 resistance value (IC50 A549/SN-38-4 / IC50 A549), 48 hours culture with SN-38; for EC50: Homo sapiens, A549, 48 h, read-out: Effect of overcoming resistance EC50
# Experimental: The human lung cancer A549 cells or the A549/SN-38-4 cells were suspended in a Ham's F-12 medium containing 10% FBS, 100 U/mL of penicillin, and 100 μg/mL of streptomycin (10% FBS/Ham's F-12), and the resultant suspension was inoculated into a 96-well microplate (2×10^3 cells/50 μL/well), followed by culturing at 5% CO2 and 37° C. overnight. […] After completion of culturing, the number of viable cells was counted by use of a viable cell counting reagent [TetraColor ONE (trademark), product of Seikagaku Corporation] according to the attached instruction manual. […] The greater the relative resistance value, the higher the level of acquired resistance.
# [2] = tested on: P388/BCRP cells; assay: Effect of overcoming SN-38 resistance of human BCRP gene-transduced P388 cells; type: cell-based, mouse; conditions: with SN-38, 48 hours, FIG. 1
# Experimental: (§1) Mouse leukemia P388 cells or human BCRP gene-transduced P388 cells (P388/BCRP cells) (see JP-A-2003-063989) were suspended in 10% FBS/RPMI1640 containing 2-mercaptethanol (50 μM), and the resultant suspension was added to a 96-well microplate (1×10^4 cells/50 μL/well). Thereafter, a solution of each of Compounds 1, 14, 21, 31, 39, and 41 of the present invention and SN-38 in 100 FBS/RPNI1640 (25 μL) was added to each of the wells, followed by culturing at 5% CO2 and 37° C. for 48 hours. After completion of culturing, the number of viable cells was counted by use of TetraColor ONE according to the manufacture's instruction manual.
# [3] = tested on: P388 cells; assay: Sensitivity of parental P388 cells to SN-38; type: cell-based, mouse; conditions: with SN-38, 48 hours, FIG. 1
# Experimental: as §1
# [4] = tested on: K562/MDR cells; assay: Effect on paclitaxel (multidrug) resistance of human MDR1 gene-transduced K562 cells; type: cell-based; conditions: for EC50: Homo sapiens, read-out: Effect of overcoming resistance EC50
# Excerpt: After completion of culturing, the number of viable cells was counted by use of TetraColor ONE according to the manufacture's instruction manual.
# [5] = tested on: K562/BCRP cells; assay: Intracellular accumulation of SN-38 in BCRP-expressing cells; type: cell-based, human; conditions: compound 500 ng/mL, 37° C. for 30 minutes, FIG. 2
# Experimental: (§2) K562 cells or human BCRP gene-transduced K562 cells (K562/BCRP cells) (see JP-A-2003-063989) were suspended in 10% FBS/RPMI1640 (1 mL) (5×10^6 cells/mL), and SN-38 and each of Compounds 1, 39, and 46 of the present invention (final concentration: 500 ng/mL) were added to the resultant suspension, followed by incubation at 37° C. for 30 minutes. Thereafter, centrifugation was performed (2° C., 1,400×g, 1 min), and the resultant supernatant was removed. Ice-cooled PBS containing 1% BSA was added to the thus-pelletized cells, and the cells were resuspended, followed by centrifugation (2° C., 1,400×g, 1 min) for washing the cells. This washing procedure was performed again, followed by addition of PBS (250 μL) and sonication of the cells. To the resultant cell sonicate, methanol (250 μL) and 10% zinc sulfate solution (10 μL) were added, and the resultant mixture was stirred, followed by centrifugation (2° C., 12, 500×g, 5 min) and collection of the supernatant. The thus-collected supernatant was dispensed in a white 96-well microplate for fluorescence intensity measurement (200 μL/well), and then the amount of SN-38 contained in the supernatant was measured by use of a microplate fluorometer [SPECTRA max GEMINI XS (trademark), product of Molecular Devices] […]
# [6] = tested on: K562 cells; assay: Intracellular accumulation of SN-38 in parental K562 cells; type: cell-based, human; conditions: compound 500 ng/mL, 37° C. for 30 minutes, FIG. 2
# Experimental: as §2
# [7] = tested on: HCT116 cells; assay: In vivo tumour growth, HCT116 tumour in nude mice; parameters: species or system human; conditions: solvent + CPT-11 10 mg/kg/day i.v. for seven days (no compound); day 21; parental HCT116
# Excerpt: (§3) A solvent was solely administered to a control group. On the day 21 from the start of administration, a tumor was extirpated from each mice and weighed, and the tumor growth inhibition ratio IR (%) was derived from the following equation: Tumor growth inhibition ratio IR(%)=(1−average tumor weight of each administration group/average tumor weight of control group)×100.
# [8] = tested on: HCT116/BCRP cells; assay: Effect of overcoming anticancer agent resistance in vivo, HCT116/BCRP tumour in nude mice; parameters: species or system human; conditions: day 21; for Tumor weight Mean ± S.D.: BALB/c nude mice; for Tumor growth inhibition ratio IR: vs control group
# Excerpt: as §3
# [9] = concentration for 50% reduction of relative paclitaxel resistance value, K562/MDR vs K562, 72 hours
# [10] = compound 12.5 mg/kg/day + CPT-11 10 mg/kg/day i.v. once a day for seven days
# [11] = compound 25 mg/kg/day + CPT-11 10 mg/kg/day i.v. once a day for seven days
# [12] = compound 6.3 mg/kg/day + CPT-11 10 mg/kg/day i.v. once a day for seven days
smiles,measurement,setting,value
"COc1ccc(/C(C#N)=C/c2ccc([N+](=O)[O-])s2)cc1OC [Compound 1, (Z)-2-(3,4-dimethoxy-phenyl)-3-(5-nitro-thiophen-2-yl)-acrylonitrile]",EC50,[1],0.006 µg/mL
same,Effect of overcoming the SN-38 resistance of the P388/BCRP cells,[2],potent effect of overcoming the SN-38 resistance
same,Effect on sensitivity of the P388 cells to SN-38,[3],did not affect the sensitivity
same,EC50,[4]; [9],> 5 µg/mL
same,Amount of accumulation of SN-38 in the K562/BCRP cells,[5],increased the amount of accumulation of SN-38
same,Amount of accumulation of SN-38 in the K562 cells (parental cells),[6],virtually unaffected
"COc1ccc(/C(C#N)=C/c2ccc[nH]2)cc1OC [Compound 39, (Z)-2-(3,4-dimethoxy-phenyl)-3-(1H-pyrrol-2-yl)-acrylonitrile]",EC50,[1],0.037 µg/mL
same,Effect of overcoming the SN-38 resistance of the P388/BCRP cells,[2],potent effect of overcoming the SN-38 resistance
same,Effect on sensitivity of the P388 cells to SN-38,[3],did not affect the sensitivity
same,EC50,[4]; [9],> 5 µg/mL
same,Amount of accumulation of SN-38 in the K562/BCRP cells,[5],increased the amount of accumulation of SN-38
same,Amount of accumulation of SN-38 in the K562 cells (parental cells),[6],virtually unaffected
"CCc1c2c(nc3ccc(OC(=O)N4CCC(N5CCCCC5)CC4)cc13)-c1cc3c(c(=O)n1C2)COC(=O)[C@]3(O)CC [CPT-11, irinotecan hydrochloride]",Tumor weight Mean ± S.D.,[7],0.37 ± 0.08 g
"COc1ccc(/C(C#N)=C/c2ccncc2)cc1OC [Compound 31, (Z)-2-(3,4-dimethoxy-phenyl)-3-pyridin-4-yl-acrylonitrile hydrochloride]",Effect of overcoming resistance EC50,[1]; hydrochloride,0.037 µg/mL
same,Tumor weight Mean ± S.D.,[8]; [10],0.74 ± 0.06 g
same,Tumor growth inhibition ratio IR,[8]; [10],46.6%
same,Tumor weight Mean ± S.D.,[8]; [11],0.67 ± 0.18 g
same,Tumor growth inhibition ratio IR,[8]; [11],51.1%
"COc1ccc(/C(C#N)=C/c2cnc[nH]2)cc1OC [Compound 41, (Z)-2-(3,4-dimethoxy-phenyl)-3-(3H-imidazol-4-yl)-acrylonitrile]",EC50,[1],0.28 µg/mL
same,Effect of overcoming the SN-38 resistance of the P388/BCRP cells,[2],potent effect of overcoming the SN-38 resistance
same,Effect on sensitivity of the P388 cells to SN-38,[3],did not affect the sensitivity
same,EC50,[4]; [9],> 5 µg/mL
"COc1ccc(/C(C#N)=C/c2ccc(N3CCN(CCO)CC3)s2)cc1OC [Compound 14, (Z)-2-(3,4-dimethoxy-phenyl)-3-{5-[4-(2-hydroxy-ethyl)-piperazin-1-yl]-thiophen-2-yl}-acrylonitrile hydrochloride]",Effect of overcoming resistance EC50,[1]; hydrochloride,0.087 µg/mL
same,EC50,"[4]; K562, 72 h",> 5 µg/mL
same,Tumor weight Mean ± S.D.,[8]; [10],0.79 ± 0.14 g
same,Tumor growth inhibition ratio IR,[8]; [10],37.7%
same,Tumor weight Mean ± S.D.,[8]; [11],0.70 ± 0.10 g
same,Tumor growth inhibition ratio IR,[8]; [11],45.1%
"COc1ccc(/C(C#N)=C/c2ccc(-c3cccc([N+](=O)[O-])c3)o2)cc1OC [Compound 21, (Z)-2-(3,4-dimethoxy-phenyl)-3-[5-(3-nitro-phenyl)-furan-2-yl]-acrylonitrile]",EC50,[1],0.02 µg/mL
same,Effect of overcoming the SN-38 resistance of the P388/BCRP cells,[2],potent effect of overcoming the SN-38 resistance
same,Effect on sensitivity of the P388 cells to SN-38,[3],did not affect the sensitivity
same,EC50,[4]; [9],> 5 µg/mL
"COc1ccc(/C(C#N)=C/c2ccc(-c3cccc(N)c3)o2)cc1OC [Compound 23, (Z)-3-[5-(3-amino-phenyl)-furan-2-yl]-2-(3,4-dimethoxy-phenyl)-acrylonitrile hydrochloride]",Effect of overcoming resistance EC50,[1]; hydrochloride,0.058 µg/mL
same,Tumor weight Mean ± S.D.,[8]; [10],1.21 ± 0.17 g
same,Tumor growth inhibition ratio IR,[8]; [10],12.3%
same,Tumor weight Mean ± S.D.,[8]; [11],0.71 ± 0.11 g
same,Tumor growth inhibition ratio IR,[8]; [11],48.8%
"COc1ccc(/C(C#N)=C/c2ccncc2)cc1OC.CS(=O)(=O)O [Compound 32, (Z)-2-(3,4-dimethoxy-phenyl)-3-pyridin-4-yl-acrylonitrile methanesulfonate]",EC50,[1],0.028 µg/mL
same,EC50,[4]; [9],> 5 µg/mL
same,Tumor weight Mean ± S.D.,[8]; [12],0.75 ± 0.24 g
same,Tumor growth inhibition ratio IR,[8]; [12],40.8%
same,Tumor weight Mean ± S.D.,[8]; [10],0.52 ± 0.11 g
same,Tumor growth inhibition ratio IR,[8]; [10],59.0%
"COc1ccc(/C(C#N)=C/c2cnc(SC)n2Cc2ccccc2)cc1OC [Compound 42, (Z)-3-(3-benzyl-2-methylsulfanyl-3H-imidazol-4-yl)-2-(3,4-dimethoxy-phenyl)-acrylonitrile]",EC50,[1],0.22 µg/mL
same,EC50,[4]; [9],> 5 µg/mL
"COc1ccc(/C(C#N)=C/c2ccc(N3CCC(O)CC3)o2)cc1OC [Compound 26, (Z)-2-(3,4-dimethoxy-phenyl)-3-[5-(4-hydroxy-piperidin-1-yl)-furan-2-yl]-acrylonitrile]",EC50,[1],0.075 µg/mL
same,EC50,[4]; [9],> 5 µg/mL
"COc1ccc(/C=C(\C#N)c2cccnc2)cc1OC [Compound 46, (Z)-3-(3,4-dimethoxy-phenyl)-2-pyridin-3-yl-acrylonitrile hydrochloride]",Effect of overcoming resistance EC50,[1]; hydrochloride,0.1 µg/mL
same,Tumor weight Mean ± S.D.,[8]; [10],0.79 ± 0.21 g
same,Tumor growth inhibition ratio IR,[8]; [10],37.7%
same,Tumor weight Mean ± S.D.,[8]; [11],0.67 ± 0.07 g
same,Tumor growth inhibition ratio IR,[8]; [11],47.7%
"COc1ccc(/C(C#N)=C/c2ccc(N3CCN(C)CC3)s2)cc1OC [Compound 13, (Z)-2-(3,4-dimethoxy-phenyl)-3-[5-(4-methyl-piperazin-1-yl)-thiophen-2-yl]-acrylonitrile hydrochloride]",Effect of overcoming resistance EC50,[1]; hydrochloride,0.033 µg/mL
same,Tumor weight Mean ± S.D.,[8]; [10],0.87 ± 0.18 g
same,Tumor growth inhibition ratio IR,[8]; [10],31.7%
same,Tumor weight Mean ± S.D.,[8]; [11],0.83 ± 0.08 g
same,Tumor growth inhibition ratio IR,[8]; [11],35.0%
"COc1ccc(/C(C#N)=C/c2ccc(CO)o2)cc1OC [Compound 20, (Z)-2-(3,4-dimethoxy-phenyl)-3-(5-hydroxy-methyl-furan-2-yl)-acrylonitrile]",Effect of overcoming resistance EC50,[1],0.49 µg/mL
same,Effect of overcoming resistance EC50,[4]; [9],>5 µg/mL
"COc1ccc(/C=C(\C#N)c2cccnc2)cc1OC [Compound 44, (Z)-3-(3,4-dimethoxy-phenyl)-2-pyridin-3-yl-acrylonitrile]",EC50,[1],0.056 µg/mL
same,EC50,[4]; [9],> 5 µg/mL
"COc1ccc(/C=C(\C#N)c2ccccn2)cc1OC [Compound 45, (Z)-3-(3,4-dimethoxy-phenyl)-2-pyridin-2-yl-acrylonitrile]",EC50,[1],0.05 µg/mL
same,EC50,[4]; [9],> 5 µg/mL
"COc1ccc(/C(C#N)=C/c2ccc(N3CCN(C)CC3)o2)cc1OC [Compound 27, (Z)-2-(3,4-dimethoxy-phenyl)-3-[5-(4-methyl-piperazin-1-yl)-furan-2-yl]-acrylonitrile]",Effect of overcoming resistance EC50,[1],0.2 µg/mL
same,EC50,[4]; [9],> 5 µg/mL
